Assays:
[1] = target: type 2 ryanodine receptor (Mus musculus, UniProt E9Q401); assay: type 2 ryanodine receptor activity inhibitory effect: endoplasmic reticulum Ca2+ (R-CEPIA1er fluorescence) in RyR-expressing HEK293 cells; format: cell-based; conditions: final concentration 10^-9 to 10^-4 M; Hill equation fit; ER Ca2+ fluorescence in HEK293 cells
Method: The EC50 value of each of the compounds shown in Table 13 with respect to the type 2 ryanodine receptor activity inhibitory effect, was measured in accordance with the following procedure.
cDNA of RyR2 was cloned from the heart muscle of a mouse by a PCR method and introduced into an expression vector (pcDNA5/FRT/TO) for Flp-In T-REX having hygromycin resistance. The vector is a tetracycline-inducible expression (Tet-On) vector and induces expression of RyR in the presence of doxycycline.
Also, R-CEPIA1er described in Nat. Commun., 2014, 5: 4153 was introduced into a neomycin resistant expression vector, pCMV/myc/ER. This vector constantly expresses R-CEPIA1er.
As HEK293 cells, Flp-In T-REX 293 cells corresponding to the Tet-On inducible system were prepared. The cells were cultured in a CO2 incubator at 37° C.
(§1) A pathogenic mutant-type RyR gene was introduced into Flp-In T-REX 293 cells by a lipofection method. The cells were cultured in a medium containing hygromycin for 10 to 14 days to establish a pathogenic mutant RyR stably expressing strain. Into the pathogenic mutant RyR stably expressing strain, an R-CEPIA1er expression vector was introduced by a lipofection method. The strain was cultured in a medium containing G418 to establish a stable dual expression strain expressing a pathogenic mutant-type RyR gene and R-CEPIA1er.
as §1, with “A wild-type” for “A pathogenic mutant-type”, “a” for “a pathogenic mutant”, “the” for “the pathogenic mutant”, “a wild-type” for “a pathogenic mutant-type”
The cultured cells expressing a pathogenic mutant RyR and R-CEPIA1er and the cultured cells expressing wild type RyR and R-CEPIA1er were separately cultured in plastic dishes at 37° C. for 24 hours. Then, the medium was exchanged with a medium containing doxycycline and the cells were further cultured for 24 hours. Fluorescence measurement was carried out by use of FlexStation. R-CEPIA1er was excited at 560 nm to acquire fluorescence at 610 nm. Fluorescence was acquired every 10 seconds for 300 seconds. The compounds shown in Table 13 each were added 60 seconds after initiation, and Ca^2+ concentration in the fluorescent endoplasmic reticulum was measured.
Inhibitory effects of the compounds on type 2 ryanodine receptor activity shown in Table 13 each were measured in the range of a final concentration of 10^−9 to 10^−4 M by the methods above. Based on the measurement results, a dose-response curve approximating the Hill equation was obtained by the least squares method. In this manner, EC50 values were calculated.

[2] = tested on: mouse having RyR2 I4093V mutation; assay: electrocardiogram of RyR2 mutation-harboring mouse before and after intraperitoneal administration; format: in vivo; conditions: for occurrence of arrhythmia (ratio of time when arrhythmia occurs): 5-15 minutes after administration, FIG. 2
From the text: In Riken BRC, male mice administered with N-ethyl-N-nitrosourea (ENU) were crossed with normal wild type females to obtain child mice (First generation: G1). These G1 mice were subjected to systematic phenotypic screening. […] As a result, a mouse having RyR2 I4093V mutation (RyR2 c.12277A>G (NM_023868.2) p.I4093V (NP_076357.2)) was found. The mouse was backcrossed with a normal wild type mouse (8 generations or more). As a result, mice conceivably having a mutation of RyR2 I4093V alone were obtained.
Compound 57 shown in Table 10 was dissolved in saline (0.9% aqueous NaCl solution) to prepare a 0.03-0.1 mg/mL solution containing compound 57. • (3) Measurement of Electrocardiogram of RyR2 Mutation-Harboring Mouse and Administration of Drug
The aforementioned mutant mice of 4-5 months old were subjected to anesthesia induction with 2% isoflurane. While maintaining the anesthetic state with 1% isoflurane, electrodes for electrocardiogram were attached to four limbs and electrocardiographical monitoring was continuously carried out. Before drug administration, electrocardiographical monitoring was carried out for 10 minutes. Then, the solution containing compound 57 prepared above was intraperitoneally injected so as to have a concentration of 0.3 mg/kg or 1 mg/kg. The electrocardiogram was recorded for further 15 minutes.
The time during which successive bigeminal pulse, trigeminal pulse or ventricular tachycardia (regarded as arrhythmia) occurred during 5-15 minutes after administration of compound 57, were summed up per individual and the ratio of time when arrhythmia occurs was obtained.

type 2 ryanodine receptor, sequence (E9Q401 whole entry): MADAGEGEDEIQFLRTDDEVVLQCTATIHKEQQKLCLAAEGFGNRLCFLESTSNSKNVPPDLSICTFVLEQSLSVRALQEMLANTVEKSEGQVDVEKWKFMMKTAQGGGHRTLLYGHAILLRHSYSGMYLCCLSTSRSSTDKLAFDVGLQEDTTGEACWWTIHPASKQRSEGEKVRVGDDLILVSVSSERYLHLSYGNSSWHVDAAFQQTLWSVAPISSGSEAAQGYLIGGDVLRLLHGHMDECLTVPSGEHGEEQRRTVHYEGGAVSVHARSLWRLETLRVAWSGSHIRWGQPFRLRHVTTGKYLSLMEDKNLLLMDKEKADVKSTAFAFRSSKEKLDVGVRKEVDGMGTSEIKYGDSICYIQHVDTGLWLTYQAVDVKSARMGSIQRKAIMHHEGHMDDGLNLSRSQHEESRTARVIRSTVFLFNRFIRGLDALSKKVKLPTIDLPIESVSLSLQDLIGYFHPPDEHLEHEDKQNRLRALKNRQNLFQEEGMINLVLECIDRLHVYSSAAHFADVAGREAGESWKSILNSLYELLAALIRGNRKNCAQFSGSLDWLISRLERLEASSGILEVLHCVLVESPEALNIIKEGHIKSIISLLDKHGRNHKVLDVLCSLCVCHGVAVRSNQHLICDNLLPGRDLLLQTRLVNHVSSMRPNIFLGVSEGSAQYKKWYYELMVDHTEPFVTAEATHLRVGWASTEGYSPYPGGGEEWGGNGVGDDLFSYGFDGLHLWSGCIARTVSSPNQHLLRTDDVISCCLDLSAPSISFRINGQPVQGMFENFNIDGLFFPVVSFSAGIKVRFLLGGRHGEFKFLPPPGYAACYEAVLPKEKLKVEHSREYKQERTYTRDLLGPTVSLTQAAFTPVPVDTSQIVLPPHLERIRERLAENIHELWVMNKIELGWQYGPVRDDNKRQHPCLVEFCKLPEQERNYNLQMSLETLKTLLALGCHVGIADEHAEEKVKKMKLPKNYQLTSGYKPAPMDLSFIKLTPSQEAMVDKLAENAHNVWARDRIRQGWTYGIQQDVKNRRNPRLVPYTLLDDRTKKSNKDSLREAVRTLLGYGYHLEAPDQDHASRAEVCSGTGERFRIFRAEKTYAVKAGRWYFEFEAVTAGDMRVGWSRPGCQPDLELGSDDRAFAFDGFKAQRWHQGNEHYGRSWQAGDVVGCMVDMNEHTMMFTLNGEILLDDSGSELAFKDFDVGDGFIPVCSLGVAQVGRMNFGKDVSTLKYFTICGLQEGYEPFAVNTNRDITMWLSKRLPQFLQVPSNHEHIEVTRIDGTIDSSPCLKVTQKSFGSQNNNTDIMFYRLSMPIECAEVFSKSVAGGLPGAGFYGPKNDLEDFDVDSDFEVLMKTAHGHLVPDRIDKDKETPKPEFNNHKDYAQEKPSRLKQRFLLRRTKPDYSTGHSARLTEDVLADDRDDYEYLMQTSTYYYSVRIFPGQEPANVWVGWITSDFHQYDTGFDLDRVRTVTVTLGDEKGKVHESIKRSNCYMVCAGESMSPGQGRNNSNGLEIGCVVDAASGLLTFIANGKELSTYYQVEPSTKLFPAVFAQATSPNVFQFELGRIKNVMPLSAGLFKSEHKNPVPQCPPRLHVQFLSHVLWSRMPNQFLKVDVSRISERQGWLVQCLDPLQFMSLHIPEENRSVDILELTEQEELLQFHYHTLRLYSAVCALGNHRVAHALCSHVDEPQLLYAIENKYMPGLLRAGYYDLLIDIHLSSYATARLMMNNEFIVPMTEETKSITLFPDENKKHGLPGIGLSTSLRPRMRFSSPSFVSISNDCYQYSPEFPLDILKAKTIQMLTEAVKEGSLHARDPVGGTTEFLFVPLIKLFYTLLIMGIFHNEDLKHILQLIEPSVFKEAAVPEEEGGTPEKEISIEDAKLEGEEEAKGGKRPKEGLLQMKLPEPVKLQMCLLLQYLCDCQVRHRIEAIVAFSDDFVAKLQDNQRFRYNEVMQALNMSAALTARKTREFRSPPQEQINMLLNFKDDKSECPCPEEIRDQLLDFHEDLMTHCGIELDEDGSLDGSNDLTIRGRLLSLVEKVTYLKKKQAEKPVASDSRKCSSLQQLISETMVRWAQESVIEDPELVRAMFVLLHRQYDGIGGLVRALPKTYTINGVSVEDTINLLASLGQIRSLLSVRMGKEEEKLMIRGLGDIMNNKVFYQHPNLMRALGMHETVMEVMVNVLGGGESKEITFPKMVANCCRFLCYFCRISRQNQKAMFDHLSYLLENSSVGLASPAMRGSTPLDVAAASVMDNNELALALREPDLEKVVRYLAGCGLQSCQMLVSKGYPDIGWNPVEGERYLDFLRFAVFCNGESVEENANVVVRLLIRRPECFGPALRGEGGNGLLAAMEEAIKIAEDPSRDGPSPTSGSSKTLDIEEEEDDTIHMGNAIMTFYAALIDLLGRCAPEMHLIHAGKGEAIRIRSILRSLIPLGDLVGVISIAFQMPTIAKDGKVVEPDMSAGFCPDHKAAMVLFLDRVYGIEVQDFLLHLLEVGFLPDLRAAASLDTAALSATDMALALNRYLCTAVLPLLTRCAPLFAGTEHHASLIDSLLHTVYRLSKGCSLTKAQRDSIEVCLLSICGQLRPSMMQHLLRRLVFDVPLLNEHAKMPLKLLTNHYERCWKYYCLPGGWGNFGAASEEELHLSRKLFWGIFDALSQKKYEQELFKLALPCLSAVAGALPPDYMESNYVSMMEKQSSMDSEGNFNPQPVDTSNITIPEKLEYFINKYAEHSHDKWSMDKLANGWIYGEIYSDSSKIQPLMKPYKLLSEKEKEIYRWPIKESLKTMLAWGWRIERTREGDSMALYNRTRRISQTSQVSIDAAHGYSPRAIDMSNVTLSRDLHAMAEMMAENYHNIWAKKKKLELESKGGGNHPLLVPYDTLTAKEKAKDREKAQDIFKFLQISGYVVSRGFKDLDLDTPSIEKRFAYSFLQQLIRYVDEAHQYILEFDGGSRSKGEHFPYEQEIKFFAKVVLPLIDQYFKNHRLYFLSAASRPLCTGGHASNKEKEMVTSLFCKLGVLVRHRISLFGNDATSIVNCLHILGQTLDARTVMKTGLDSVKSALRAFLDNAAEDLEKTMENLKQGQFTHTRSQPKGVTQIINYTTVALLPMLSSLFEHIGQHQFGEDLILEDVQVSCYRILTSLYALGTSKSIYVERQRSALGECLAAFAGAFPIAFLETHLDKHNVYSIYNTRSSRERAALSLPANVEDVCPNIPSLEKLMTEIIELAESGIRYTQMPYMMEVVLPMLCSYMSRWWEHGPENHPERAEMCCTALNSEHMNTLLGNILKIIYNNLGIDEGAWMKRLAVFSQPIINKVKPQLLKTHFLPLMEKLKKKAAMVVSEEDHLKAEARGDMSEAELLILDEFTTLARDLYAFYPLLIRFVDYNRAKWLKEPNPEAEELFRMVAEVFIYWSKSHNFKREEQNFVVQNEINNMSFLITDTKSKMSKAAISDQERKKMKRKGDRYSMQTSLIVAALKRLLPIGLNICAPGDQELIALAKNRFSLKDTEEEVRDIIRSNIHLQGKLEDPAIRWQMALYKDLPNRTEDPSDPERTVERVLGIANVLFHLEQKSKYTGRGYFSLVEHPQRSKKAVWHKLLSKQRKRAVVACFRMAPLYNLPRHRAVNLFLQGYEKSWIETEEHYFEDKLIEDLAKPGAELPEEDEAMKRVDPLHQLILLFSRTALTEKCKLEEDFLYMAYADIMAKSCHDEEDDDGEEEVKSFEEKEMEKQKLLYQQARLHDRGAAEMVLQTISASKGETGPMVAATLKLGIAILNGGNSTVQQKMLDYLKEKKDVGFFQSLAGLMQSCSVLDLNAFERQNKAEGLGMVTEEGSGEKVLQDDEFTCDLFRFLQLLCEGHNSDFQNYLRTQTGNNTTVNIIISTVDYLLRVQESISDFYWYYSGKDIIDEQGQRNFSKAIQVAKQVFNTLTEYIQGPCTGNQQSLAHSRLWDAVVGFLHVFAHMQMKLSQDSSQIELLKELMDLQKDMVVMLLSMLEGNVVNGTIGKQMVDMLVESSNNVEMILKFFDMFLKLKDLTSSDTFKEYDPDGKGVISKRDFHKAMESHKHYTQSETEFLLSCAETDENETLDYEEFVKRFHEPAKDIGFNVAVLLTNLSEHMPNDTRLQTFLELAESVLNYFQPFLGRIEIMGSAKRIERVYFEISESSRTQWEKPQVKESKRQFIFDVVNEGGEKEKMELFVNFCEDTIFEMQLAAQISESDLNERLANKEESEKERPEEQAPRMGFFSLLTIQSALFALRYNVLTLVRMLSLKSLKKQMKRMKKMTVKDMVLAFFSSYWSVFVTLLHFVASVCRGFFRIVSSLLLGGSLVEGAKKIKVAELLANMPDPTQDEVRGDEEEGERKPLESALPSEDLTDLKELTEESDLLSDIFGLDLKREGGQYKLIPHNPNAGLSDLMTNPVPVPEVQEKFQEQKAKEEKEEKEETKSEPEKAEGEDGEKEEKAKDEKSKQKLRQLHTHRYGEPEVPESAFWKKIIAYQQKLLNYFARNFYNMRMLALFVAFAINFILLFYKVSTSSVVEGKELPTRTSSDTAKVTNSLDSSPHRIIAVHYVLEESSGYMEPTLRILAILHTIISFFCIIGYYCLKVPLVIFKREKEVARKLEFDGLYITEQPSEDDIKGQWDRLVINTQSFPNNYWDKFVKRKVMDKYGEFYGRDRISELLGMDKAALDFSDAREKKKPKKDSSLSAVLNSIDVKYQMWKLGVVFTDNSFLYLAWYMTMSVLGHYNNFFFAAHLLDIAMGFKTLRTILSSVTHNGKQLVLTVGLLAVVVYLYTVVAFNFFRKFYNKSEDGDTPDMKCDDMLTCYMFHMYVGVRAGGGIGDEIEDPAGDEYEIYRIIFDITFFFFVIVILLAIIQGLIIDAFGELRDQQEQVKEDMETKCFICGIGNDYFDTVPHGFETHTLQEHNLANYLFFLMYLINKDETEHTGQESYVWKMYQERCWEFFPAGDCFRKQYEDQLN

Structure (SMILES) | EC50 [1] [nM] | also measured
COc1ccccc1-c1nnn(CC(=O)N(C)c2ccccc2)n1 [Compound 45] | 3370 | –
COc1ccc(N(C)C(=O)Cn2nnc(-c3ccccc3)n2)cc1 [Compound 41] | 154 | –
CN(C(=O)Cn1nnc(-c2ccccc2)n1)c1ccccc1 [Compound 35] | 676 | –
CCN(C(=O)Cn1nnc(-c2ccccc2)n1)c1ccc(OC)cc1 [Compound 59] | 1360 | –
Cc1cccc(N(C)C(=O)Cn2nnc(-c3ccccc3)n2)c1 [Compound 37] | 606 | –
CCN(C(=O)Cn1nnc(-c2ccccc2)n1)c1ccc(F)cc1 [Compound 60] | 768 | –
Cc1ccc(N(C)C(=O)Cn2nnc(-c3ccccc3)n2)cc1 [Compound 38] | 2770 | –
CCN(C(=O)Cn1nnc(-c2ccc(OC(F)(F)F)cc2)n1)c1ccc(F)cc1 [Compound 63] | 1050 | –
CCN(C(=O)Cn1nnc(-c2ccccc2)n1)c1ccccc1 [Compound 58] | 5460 | –
COc1ccc(-c2nnn(CC(=O)N(C)c3ccccc3)n2)cc1 [Compound 47] | 1250 | –
COc1cccc(N(C)C(=O)Cn2nnc(-c3ccccc3)n2)c1 [Compound 40] | 8310 | –
CCN(C(=O)Cn1nnc(-c2ccc(OC)cc2)n1)c1ccc(OC)cc1 [Compound 62] | 2680 | –
CCN(C(=O)Cn1nnc(-c2ccccc2)n1)c1ccc(OC(F)(F)F)cc1 [Compound 61] | 44200 | –
CCCN(C(=O)Cn1nnc(-c2ccccc2)n1)c1ccccc1 [Compound 66] | 39500 | –

Molecules with a lower EC50 [1], results first:

EC50 [1] [nM] | Structure (SMILES) | also measured
44 | COc1cccc(-c2nnn(CC(=O)N(C)c3ccc(F)cc3)n2)c1 [Compound 49] | –
51 | COc1cccc(-c2nnn(CC(=O)N(C)c3ccc(F)c(OC)c3)n2)c1 [Compound 53] | –
31 | COc1cccc(-c2nnn(CC(=S)N(C)c3ccc(F)cc3)n2)c1 [Compound 68] | –
147 | COc1cccc(-c2nnn(CC(=O)N(C)c3ccccc3)n2)c1 [Compound 46] | –
15 | CN(C(=O)Cn1nnc(-c2cc(F)cc(F)c2)n1)c1ccc(F)cc1 [Compound 57] | occurrence of arrhythmia (ratio of time when arrhythmia occurs) ([2]; 0.3 mg/kg intraperitoneal): low; ECG (bidirectional ventricular tachycardia before administration) ([2]; 0.3 mg/kg intraperitoneal, RyR2 I4093V mice, FIG. 1): went back to normal; occurrence of arrhythmia (ratio of time when arrhythmia occurs) ([2]; 1 mg/kg intraperitoneal): low
48 | COc1cccc(-c2nnn(CC(=O)N(C)c3ccc4c(c3)OCO4)n2)c1 [Compound 54] | –
33 | CN(C(=S)Cn1nnc(-c2cccc(F)c2)n1)c1ccc(F)cc1 [Compound 70] | –
41 | COc1ccc(N(C)C(=S)Cn2nnc(-c3cccc(OC)c3)n2)cc1 [Compound 67] | –
39 | COc1ccc(N(C)C(=S)Cn2nnc(-c3cccc(F)c3)n2)cc1 [Compound 69] | –
49 | CN(C(=O)Cn1nnc(-c2cccc(F)c2)n1)c1ccc(F)cc1 [Compound 51] | –
36 | COc1ccc(N(C)C(=O)Cn2nnc(-c3cccc(F)c3)n2)cc1 [Compound 50] | –
43 | COc1ccc(N(C)C(=O)Cn2nnc(-c3cccc(OC)c3)n2)cc1 [Compound 48] | –

Source: patent US20230150952A1, “TYPE 2 RYANODINE RECEPTOR ACTIVITY INHIBITOR” (JUNTENDO EDUCATIONAL FOUNDATION, priority 2020, published 2023)
